Experimental data: patent US12473295B2, “Substituted straight chain spiro derivatives” (Janssen Pharmaceutica NV, priority 2019, dated 2025)
pIC50: −log10 of the molar value. Structures can show the parent of a compound that is named as a salt. Where two headings read alike, the source gives them in different places.

Assays:
[1] = molecular target: menin/MLL (terbium chelate-labeled menin, FITC-MBM1 peptide) (Homo sapiens (Human), UniProt O00255); test: Menin/MLL homogenous time-resolved fluorescence (HTRF) assay; type: binding; settings: HTRF-30 min incubation IC50, 30 min incubation;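 further: IC50 from percent inhibition of HTRF signal, normalized between wells without competitor and wells with a saturating competitor that displaces FITC-MBM1 from His-tagged menin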
Chain of menin/MLL (terbium chelate-labeled menin, FITC-MBM1 peptide) (O00255 other isoform, or with tags, fused parts or gaps): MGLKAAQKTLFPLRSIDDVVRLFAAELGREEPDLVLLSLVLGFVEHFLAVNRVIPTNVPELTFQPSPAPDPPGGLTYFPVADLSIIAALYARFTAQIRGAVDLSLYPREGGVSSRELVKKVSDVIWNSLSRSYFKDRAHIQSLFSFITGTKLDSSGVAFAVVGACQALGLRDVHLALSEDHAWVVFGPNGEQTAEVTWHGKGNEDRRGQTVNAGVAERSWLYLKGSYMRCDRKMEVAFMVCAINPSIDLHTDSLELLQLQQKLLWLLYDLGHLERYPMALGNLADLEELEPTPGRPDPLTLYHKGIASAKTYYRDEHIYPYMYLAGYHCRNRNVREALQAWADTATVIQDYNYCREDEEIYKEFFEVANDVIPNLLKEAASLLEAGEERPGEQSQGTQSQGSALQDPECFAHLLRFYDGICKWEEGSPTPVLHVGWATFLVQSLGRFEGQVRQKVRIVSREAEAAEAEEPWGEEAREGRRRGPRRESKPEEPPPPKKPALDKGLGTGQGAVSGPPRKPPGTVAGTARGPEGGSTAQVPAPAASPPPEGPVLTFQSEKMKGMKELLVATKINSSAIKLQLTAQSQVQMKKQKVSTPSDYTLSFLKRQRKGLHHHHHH

MOLM14 cells = test: Proliferation assay (spheroid growth, 8 days), MOLM14; type: cell-based, human; settings: MOLM14, 8 days, read-out: spheroid assay_OneTime MOLM14 IC50;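 further: spheroid size read as confluence by live-cell imaging, compounds added at a range of concentrations with 0.3% DMSO, DMSO-treated wells = 0%, highest reference dose = low control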
OCI-AML3 cells = test: Proliferation assay (spheroid growth, 8 days), OCI-AML3; type: cell-based, human; settings: OCI-AML3, 8 days
Outline: (§1)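 200 MOLM14 (MLL-AF9), 200 OCI-AML3 (NPM1c) or 300 KO-52 (MLL wildtype) cells were grown as spheroids in ultra-low attachment wells with compound, 0.3% DMSO, for 8 days at 37 °C. Confluence was imaged on day 8, normalized to DMSO and top-dose reference compound. IC50 came from a variable-slope fit constrained 0–100%.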

KO-52 cells = test: Proliferation assay (spheroid growth, 8 days), KO-52 control cell line; type: cell-based, human; settings: Homo sapiens, […], read-out: spheroid assay_OneTime KO-52 IC50
Outline: as §1

MEIS1 mRNA = MEIS1 mRNA expression assay (Quantigene Singleplex) in MOLM14 cells; type: cell-based, human; settings: Homo sapiens, MOLM-14, 48 h, 48 hours incubation;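 further: MEIS1 transcript levels read by probe hybridization and normalized to RPL28 mRNA, with IC50 fitted to fold changes across a rising compound concentration series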

| Compound | pIC50 [1] | pIC50 (MOLM14 cells; Homo sapiens, MOLM-14, […]) | pIC50 (OCI-AML3 cells; Homo sapiens, OCI-AML-3, […]) | pIC50 (MEIS1 mRNA) | pIC50 (MOLM14 cells) | pIC50 (OCI-AML3 cells) | pIC50 (KO-52 cells) |
| --- | --- | --- | --- | --- | --- | --- | --- |
| CCN(C(=O)c1cc(F)ccc1Oc1nncnc1N1CCC2(C1)CN([C@H](CCCCN(C)C)C(C)C)C2)C(C)C (single isomer, unassigned) [Compound 211] | 9.46 | 6.82 | 7.01 | 6.96 |  |  | < 4.82 |
| CCN(C(=O)c1cc(F)ccc1Oc1nncnc1N1CCC2(C1)CN([C@H](CCN)C(C)C)C2)C(C)C (single isomer, unassigned) [Compound 219, (*R)-2-((5-(2-(1-amino-4-methylpentan-3-yl)-2,6-diazaspiro[3.4]octan-6-yl)-1,2,4-triazin-6-yl)oxy)-N-ethyl-5-fluoro-N-isopropylbenzamide fumarate] | 9.57 | 6.89 | 6.37 | ~6.64 |  |  | < 4.82 |
| CCN(C(=O)c1cc(F)ccc1Oc1nncnc1N1CCC2(C1)CN([C@H](CCNC(C)C)C(C)C)C2)C(C)C (single isomer, unassigned) [Compound 229, (*R)—N-ethyl-5-fluoro-N-isopropyl-2-((5-(2-(1-(isopropylamino)-4-methylpentan-3-yl)-2,6-diazaspiro[3.4]octan-6-yl)-1,2,4-triazin-6-yl)oxy)benzamide fumarate] | 9.43 | 6.49 | 6.06 | 6.44 |  |  | < 4.82 |
| CCN(C(=O)c1cc(F)ccc1Oc1nncnc1N1CCC2(C1)CN([C@H](CCNCC(N)=O)C(C)C)C2)C(C)C (single isomer, unassigned) [Compound 230, (*R)-2-((5-(2-(1-((2-amino-2-oxoethyl)amino)-4-methylpentan-3-yl)-2,6-diazaspiro[3.4]octan-6-yl)-1,2,4-triazin-6-yl)oxy)-N-ethyl-5-fluoro-N-isopropylbenzamide] | ~9.06 | < 6.03 | 5.94 | ~6.03 |  |  | < 4.82 |
| CCN(C(=O)c1cc(F)ccc1Oc1nncnc1N1CCC2(C1)CN([C@H](CCCN(C)C[C@@H](C)OC)C(C)C)C2)C(C)C (single isomer, unassigned) [Compound 250, N-ethyl-5-fluoro-N-isopropyl-2-((5-(2-((R)-6-(((*R)-2-methoxypropyl)(methyl)amino)-2-methylhexan-3-yl)-2,6-diazaspiro[3.4]octan-6-yl)-1,2,4-triazin-6-yl)oxy)benzamide oxalate] | 9.74 | 6.66 | 6.39 | 7.04 |  |  | 5.15 |
| CCN(C(=O)c1cc(F)ccc1Oc1nncnc1N1CCC2(C1)CN([C@H](CCCN(C)C[C@H](C)OC)C(C)C)C2)C(C)C (single isomer, unassigned) [Compound 251, N-ethyl-5-fluoro-N-isopropyl-2-((5-(2-((R)-6-(((*S)-2-methoxypropyl)(methyl)amino)-2-methylhexan-3-yl)-2,6-diazaspiro[3.4]octan-6-yl)-1,2,4-triazin-6-yl)oxy)benzamide oxalate] | 9.74 | 7.28 | 6.89 | 7.72 |  |  | 5.41 |
| CCN(C(=O)c1cc(F)ccc1Oc1nncnc1N1CCC2(C1)CN(C(C(C)C)C(C)CCN(C)CCOC)C2)C(C)C (single isomer, unassigned) [Compound 266, N-ethyl-5-fluoro-N-isopropyl-2-((5-(2-(6-((2-methoxyethyl)(methyl)amino)-2,4-dimethylhexan-3-yl)-2,6-diazaspiro[3.4]octan-6-yl)-1,2,4-triazin-6-yl)oxy)benzamide (mixture of R,R and S,S; or mixture of R,S and S,R) fumarate] | 9.04 |  |  | 7.41 | 7.54 | 7.31 | < 4.82 |
| CCN(C(=O)c1cc(F)ccc1Oc1nncnc1N1CCC2(C1)CN([C@H](CCNCCO)C(C)C)C2)C(C)C (single isomer, unassigned) [Compound 268, (*R)—N-ethyl-5-fluoro-2-((5-(2-(1-((2-hydroxyethyl)amino)-4-methylpentan-3-yl)-2,6-diazaspiro[3.4]octan-6-yl)-1,2,4-triazin-6-yl)oxy)-N-isopropylbenzamide fumarate] | 9.54 | 6.70 | 6.28 | 6.47 |  |  | < 4.82 |

The next lines start with results.

| pIC50 [1] | pIC50 (MOLM14 cells; Homo sapiens, MOLM-14, […]) | pIC50 (OCI-AML3 cells; Homo sapiens, OCI-AML-3, […]) | pIC50 (MEIS1 mRNA) | pIC50 (MOLM14 cells) | pIC50 (OCI-AML3 cells) | Compound | pIC50 (KO-52 cells) |
| --- | --- | --- | --- | --- | --- | --- | --- |
| 9.27 | 6.85 | 6.32 | 6.66 |  |  | CCN(C(=O)c1cc(F)ccc1Oc1nncnc1N1CCC2(C1)CN([C@H](CCN(C)CCO)C(C)C)C2)C(C)C (single isomer, unassigned) [Compound 270, (*R)—N-ethyl-5-fluoro-2-((5-(2-(1-((2-hydroxyethyl)(methyl)amino)-4-methylpentan-3-yl)-2,6-diazaspiro[3.4]octan-6-yl)-1,2,4-triazin-6-yl)oxy)-N-isopropylbenzamide fumarate] | < 4.82 |
| 9.57 | 7.19 | 6.80 | 7.00 |  |  | CCN(C(=O)c1cc(F)ccc1Oc1nncnc1N1CCC2(C1)CN([C@H](CCNCCCOC)C(C)C)C2)C(C)C (single isomer, unassigned) [Compound 271, (*R)—N-ethyl-5-fluoro-N-isopropyl-2-((5-(2-(1-((3-methoxypropyl)amino)-4-methylpentan-3-yl)-2,6-diazaspiro[3.4]octan-6-)-1,2,4-triazin-6-yl)oxy)benzamide] | < 4.82 |
| 9.24 | 6.89 | 6.36 | 6.77 |  |  | CCNCC[C@H](C(C)C)N1CC2(CCN(c3ncnnc3Oc3ccc(F)cc3C(=O)N(CC)C(C)C)C2)C1 (single isomer, unassigned) [Compound 272, (*R)—N-ethyl-2-((5-(2-(1-(ethylamino)-4-methylpentan-3-yl)-2,6-diazaspiro[3.4]octan-6-yl)-1,2,4-triazin-6-yl)oxy)-5-fluoro-N-isopropylbenzamide formate] | < 4.82 |
| 9.68 | 6.41 | 6.08 | ~6.41 |  |  | CCN(C(=O)c1cc(F)ccc1Oc1nncnc1N1CCC2(C1)CN([C@H](CCNCCCO)C(C)C)C2)C(C)C (single isomer, unassigned) [Compound 273, (*R)—N-ethyl-5-fluoro-2-((5-(2-(1-((3-hydroxypropyl)amino)-4-methylpentan-3-yl)-2,6-diazaspiro[3.4]octan-6-yl)-1,2,4-triazin-6-yl)oxy)-N-isopropylbenzamide] | < 4.82 |
| 9.42 | 6.70 | 6.19 | 6.64 |  |  | CCN(C(=O)c1cc(F)ccc1Oc1nncnc1N1CCC2(C1)CN([C@H](CCN(C)CCCO)C(C)C)C2)C(C)C (single isomer, unassigned) [Compound 274, (*R)—N-ethyl-5-fluoro-2-((5-(2-(1-((3-hydroxypropyl)(methyl)amino)-4-methylpentan-3-yl)-2,6-diazaspiro[3.4]octan-6-yl)-1,2,4-triazin-6-yl)oxy)-N-isopropylbenzamide] | < 4.82 |
| 9.18 | 7.11 | 6.48 | 7.00 |  |  | CCN(C(=O)c1cc(F)ccc1Oc1nncnc1N1CCC2(C1)CN([C@H](CCN(C)CCCOC)C(C)C)C2)C(C)C (single isomer, unassigned) [Compound 275, (*R)—N-ethyl-5-fluoro-N-isopropyl-2-((5-(2-(1-((3-methoxypropyl)(methyl)amino)-4-methylpentan-3-yl)-2,6-diazaspiro[3.4]octan-6-yl)-1,2,4-triazin-6-yl)oxy)benzamide] | < 4.82 |
| 9.30 | 6.62 | 5.79 | 6.41 |  |  | CCN(C(=O)c1cc(F)ccc1Oc1nncnc1N1CCC2(C1)CN([C@H](CCN(C)CCOC)C(C)C)C2)C(C)C (single isomer, unassigned) [Compound 276, (*R)—N-ethyl-5-fluoro-N-isopropyl-2-((5-(2-(1-((2-methoxyethyl)(methyl)amino)-4-methylpentan-3-yl)-2,6-diazaspiro[3.4]octan-6-yl)-1,2,4-triazin-6-yl)oxy)benzamide] | < 4.82 |
| 10.17 | < 6.03 | 5.49 | < 6.00 |  |  | CCN(C(=O)c1cc(F)ccc1Oc1nncnc1N1CCC2(C1)CN([C@H](CCNCCC(N)=O)C(C)C)C2)C(C)C (single isomer, unassigned) [Compound 278, (*R)-2-((5-(2-(1-((3-amino-3-oxopropyl)amino)-4-methylpentan-3-yl)-2,6-diazaspiro[3.4]octan-6-yl)-1,2,4-triazin-6-yl)oxy)-N-ethyl-5-fluoro-N-isopropylbenzamide fumarate] | < 4.82 |
| 9.70 | 6.16 | 6.04 | 5.97 |  |  | CCN(C(=O)c1cc(F)ccc1Oc1nncnc1N1CCC2(C1)CN([C@H](CCN(C)CCC(N)=O)C(C)C)C2)C(C)C (single isomer, unassigned) [Compound 280, (*R)-2-((5-(2-(1-((3-amino-3-oxopropyl)(methyl)amino)-4-methylpentan-3-yl)-2,6-diazaspiro[3.4]octan-6-yl)-1,2,4-triazin-6-yl)oxy)-N-ethyl-5-fluoro-N-isopropylbenzamide fumarate] | < 4.82 |
